Values of other authors as cited in patent US20260216106A1, “DOSAGE FORM FOR INTRA-ARTICULAR INJECTION […] USE IN THE TREATMENT OF A JOINT DISEASE SUCH AS OSTEOARTHRITIS” (priority 2023, published 2026).

Conditions: literature (Niel et al 2006)

COc1cc2c(c(OC)c1OC)-c1ccc(OC)c(=O)cc1[C@@H](NC(C)=O)CC2 [colchicine, N-[(7S)-1,2,3,10-tetramethoxy-9-oxo-6,7-dihydro-5H-benzo[a]heptalen-7-yl]acetamide]
lethal dose: 0.8 mg/kg
toxicity limit dose: 0.1 mg/kg
